Laboratory results reported in patent publication US9682999B2, “Benzofuran compounds for the treatment of hepatitis C virus infections” (Glaxo Group Limited, priority 2011, dated 2017).

Key:
[1] = In vivo pharmacokinetic study, rat
Procedure: In vivo pharmacokinetic studies were conducted in mouse, rat, dog, or cynomolgus monkey to determine clearance, oral exposure and bioavailability (% F). Solution doses of the compounds were administered intravenously through catheters or orally by gavage. Blood samples were collected at the following time points (n=2 or 3/route/species): 0.083 (IV only), 0.167 (IV only), 0.25, 0.5, 1, 2, 4, 6, 8, 12, and 24 h. Non-compartmental pharmacokinetic parameters were determined using Phoenix Winnonlin 6.1 (Pharsight, Mountain View, Calif.). Bioavailability of the oral formulation of each compound were calculated as the ratio of the oral dose normalized AUCinf to the intravenous dose normalized AUCinf. Results are expressed in Table 2.

[2] = Hepatocyte incubations, metabolic stability; type: in vitro ADME; design: dose or concentration left out as unconfirmed; settings: cryopreserved human hepatocytes, 0.25×10^6 cells, up to 120 min, 37 C
Procedure: Hepatocyte incubations were conducted using cryopreserved hepatocytes purchased from CellzDirect (Durham, N.C.). Cryopreserved hepatocytes were removed from liquid nitrogen and thawed according to XenoTech's guidelines listed in “XenoTech Protocol for Thawing Cryopreserved Hepatocytes” using Hepatocyte Isolation Kit K2000 (Dec. 13, 2004). Hepatocytes were diluted to 1 million cells in 1 mL of Williams E media containing 25 mM HEPES buffer and 2 mM Glutamax.
Hepatocyte incubations were carried out in 96-well plates on an Eppendorf shaker at 350 rpm at 37 C. Reaction mixtures consisted of 0.25×10^6 cells and […] test compound (to maintain a 0.05% final DMSO concentration) in a final volume of 0.5 mL. An initial time-point (t0) was collected and subsequent aliquots were collected at 15, 30, 60, 90, and 120 min. Reactions were terminated by transferring […] of the incubation mixture into a 96-well plate containing […] of an organic mixture [acetonitrile and methanol (80:20)] at 4° C. Precipitated protein was removed by centrifugation and the resultant supernatant was transferred to a new 96-well polypropylene plate for LC/MS/MS analysis. Drug-free matrix control and 2 QC standards (phenacetin and propranolol) were included in each experiment and treated in the same manner as test compound.
Metabolic stability expressed as the percentage of parent compound remaining was calculated from the peak area ratio of compound remaining after incubation (tx) compared to the time zero (t0) incubation.
The half-life (t1/2) was calculated using the following equation: […]
Where K is the slope of the ln % remaining vs. time regression. Half-life values were only reported when at least 15% loss of parent compound was observed.

[3] = tested on: sub-genomic HCV NS3-NS5B replicon genotype 1b C316N (Huh-7 cells); assay: Replicon luciferase cell based assay, genotype 1b C316N; settings: Hepatitis C virus, Huh-7, 48 h, read-out: EC50 1b 316N
Procedure: (§1) 150 μL of a 1 mM stock solution in DMSO of each test compound was transferred into in the first column of a 96 well, V-bottom microplate, to give 200 times the top concentration of the required dilution series. Aliquots of 50 μL were added to each well of the remaining rows containing 100 μL of DMSO giving a 1:3 dilution series over ten points. Columns 11 and 12 contained DMSO only for the positive and negative control, respectively. 10 μL of each well were transferred into 90 μL of DMEM medium (Invitrogen #41965-039) supplemented with 5% v/v foetal calf serum, 1% v/v non-essential amino acids solution, 100 units/ml penicillin, 100 μg/ml streptomycin and 2 mM L-glutamine to give 20 times the top concentration of the required dilution series.
(§2) Suspensions were prepared from cultures of Huh-7 cells stably transfected with sub-genomic HCV NS3-NS5B replicons of either genotype 1b (the ET subline described by Pietschmann, T., Lohmann, V., Kaul, A., Krieger, N., Rinck, G., Rutter, G., Strand, D. & Bartenschlager, R., Journal of Virology, 2002, 76, 4008-4021), genotype 1a (subline 1.19 constructed in-house from H77 SG-Neo containing adaptive mutations P1496L and S2204I as described by Blight, K. J., McKeating, J. A., Marcotrigiano, J., and Rice, C. M. Journal of Virology, 2003, 77, 3180-3190), genotype 1b C316N (constructed in-house by site directed mutagenesis of the NS5B gene of the ET subline), or genotype 1a C316Y (constructed in-house by site directed mutagenesis of the NS5B gene of H77 SG-Neo containing adaptive mutations P1496L and S2204I as described by Blight, K. J., McKeating, J. A., Marcotrigiano, J., and Rice, C. M. Journal of Virology, 2003, 77, 3180-3190) linked to a firefly luciferase reporter gene. Monolayers nearing confluency were stripped from growth flasks with versene-trypsin solution and the cells re-suspended in assay medium comprising DMEM. 95 μL of suspension containing either 15,000 cells (genotype 1b luciferase replicon) or 20,000 cells (genotype 1a luciferase replicon) were added to all wells of a 96 well plate (Perkin Elmer, #6005686), except medium controls in column 12 of the assay plate. The cell suspension was dosed with 5 μL of compound solution and the plate was incubated for 48 hours at 37° C. in a 5% CO2 atmosphere.
(§3) For toxicity the cells in one plate were treated with Cell Titer Glo (Promega, #G7573). A solution of Cell Titer Glo was prepared according to the manufacturer's instructions, and 100 μL added to each well. The plate was then read for luminescence on an Envision. For potency a solution of Steady Glo (Promega, #E2550) was prepared according to the manufacturer's instructions and 100 μL added to each well. After a twenty minute incubation the plate was then read for luminescence on an Envision.
(§4) Potency: The luminescence values from all compound-free wells containing cells were averaged to obtain a positive control value. The mean luminescence value from the compound-free wells that had received no cells was used to provide the negative (background) control value. The readings from the wells at each compound concentration were taken and after the subtraction of the mean background from all values, were expressed as a percentage of the positive control signal. The quantifiable and specific reduction of luciferase signal in the presence of a drug is a direct measure of replicon inhibition. BioAssay Enterprise (CamebridgeSoft) with the XC50 module for curve fitting was used to plot the curve of percentage inhibition against compound concentration and derive the 50% inhibitory concentration (EC50) for the compound. EC50 is the effective concentration, that is, the concentration of compound where 50% maximal effect is observed. The EC50 values of two identical plates were averaged. The results are presented in Table 1 as EC50 for genotypes (GT) 1a, 1b, 1b 316N and 1a 316Y.

[4] = tested on: sub-genomic HCV NS3-NS5B replicon genotype 1b (Huh-7 cells); assay: Replicon luciferase cell based assay, genotype 1b; settings: Hepatitis C virus; Huh-7 genotype 1b luciferase replicon, 48 hours; read-out: EC50 GT1b
Procedure: as §1, §2, §3, §4

[5] = tested on: sub-genomic HCV NS3-NS5B replicon genotype 1a (Huh-7 cells); assay: Replicon luciferase cell based assay, genotype 1a; settings: Hepatitis C virus; Huh-7 genotype 1a luciferase replicon, 48 hours; read-out: EC50 GT 1a
Procedure: as §1, §2, §3, §4

[6] = tested on: sub-genomic HCV NS3-NS5B replicon genotype 1a C316Y (Huh-7 cells); assay: Replicon luciferase cell based assay, genotype 1a C316Y; settings: Hepatitis C virus, Huh-7, 48 h, read-out: EC50 1a 316Y
Procedure: as §1, §2, §3, §4

With `CNC(=O)c1c(-c2ccc(F)cc2)oc2cc(N(Cc3ccc(B(O)O)c(Cl)c3)S(C)(=O)=O)c(C3CC3)cc12` [B] the DNAUC ([1]; Rat) was 122 ng·h/mL/mg/kg, the “T 1/2” value ([1]; Rat) was 1.1 H and the clearance ([1]; rat, blood, intravenous) was 1.99 L/h/kg. It also gave a Vd ([1]; rat, blood, intravenous, read-out: Vss) of 2.5 L/kg, a bioavailability ([1]; rat, blood, oral) of 23% and a half-life [2] of 45 min.

`CNC(=O)c1c(-c2ccc(F)cc2)oc2cc(N(c3ccc(B(O)O)c(F)c3)S(C)(=O)=O)c(C3CC3)cc12` [Example 5, 4-(N-(5-cyclopropyl-2-(4-fluorophenyl)-3-(methylcarbamoyl)benzofuran-6-yl)methylsulfonamido)-2-fluorophenylboronic acid] showed an EC50 [3] of 0.001 to 0.01 µM, an EC50 [4] of 0.001 to 0.01 µM and an EC50 [5] of 0.001 to 0.01 µM. The EC50 [6] was 0.011 to 0.2 µM.

Compound `CS(=O)(=O)N(c1ccc(B(O)O)c(Cl)c1)c1cc2oc(-c3ccc(Cl)cc3)c(C(N)=O)c2cc1C1CC1` [Example 14, (4-(N-(3-carbamoyl-2-(4-chlorophenyl)-5-cyclopropylbenzofuran-6-yl)methylsulfonamido)-2-chlorophenyl)boronic acid] has an EC50 [3] of 0.001 to 0.01 µM, an EC50 [4] of 0.001 to 0.01 µM and an EC50 [5] of 0.001 to 0.01 µM. The EC50 [6] was 0.011 to 0.2 µM.

For `CNC(=O)c1c(-c2ccc(F)cc2)oc2cc(N(c3ccc(C4CCB(O)O4)c(Cl)c3)S(C)(=O)=O)c(C3CC3)cc12` (centres unmarked) [Example 27, 6-(N-(3-Chloro-4-(2-hydroxy-1,2-oxaborolan-5-yl)phenyl)methylsulfonamido)-5-cyclopropyl-2-(4-fluorophenyl)-N-methylbenzofuran-3-carboxamide], the EC50 [3] was 0.011 to 0.2 µM, the EC50 [4] was 0.001 to 0.01 µM and the EC50 [5] was 0.001 to 0.01 µM. The EC50 [6] was 0.011 to 0.2 µM.

Compound `CNC(=O)c1c(-c2ccc(F)cc2)oc2cc(N(c3ccc(B4OC(C)(C)C(C)(C)O4)c(C)c3)S(C)(=O)=O)c(C3CC3)cc12` [Example 22, 5-Cyclopropyl-2-(4-fluorophenyl)-N-methyl-6-(N-(3-methyl-4-(4,4,5,5-tetramethyl-1,3,2-dioxaborolan-2-yl)phenyl)methylsulfonamido)benzofuran-3-carboxamide] has an EC50 [3] of 0.001 to 0.01 µM, an EC50 [4] of 0.001 to 0.01 µM and an EC50 [5] of 0.001 to 0.01 µM. It also gave an EC50 [6] of 0.2 to 1 µM.

For `CNC(=O)c1c(-c2ccc(Cl)cc2)oc2cc(N(c3ccc(B(O)O)c(F)c3)S(C)(=O)=O)c(C3CC3)cc12` [Example 7, 4-(N-(2-(4-chlorophenyl)-5-cyclopropyl-3-(methylcarbamoyl)benzofuran-6-yl)methylsulfonamido)-2-fluorophenylboronic acid], the EC50 [3] was 0.001 to 0.01 µM, the EC50 [4] was 0.001 to 0.01 µM and the EC50 [5] was 0.001 to 0.01 µM. For the same compound, the EC50 [6] was 0.011 to 0.2 µM.

Work on `CNC(=O)c1c(-c2ccc(F)cc2)oc2cc(N(c3ccc4c(c3)COB4O)S(C)(=O)=O)c(C3CC3)cc12` [Example 20, 5-Cyclopropyl-2-(4-fluorophenyl)-6-(N-(1-hydroxy-1,3-dihydrobenzo[c][1,2]oxaborol-5-yl)methylsulfonamido)-N-methylbenzofuran-3-carboxamide] yielded an EC50 [3] of 0.001 to 0.01 µM, an EC50 [4] of 0.001 to 0.01 µM and an EC50 [5] of 0.001 to 0.01 µM. The EC50 [6] was 0.011 to 0.2 µM.

With `CNC(=O)c1c(-c2ccc(F)cc2)oc2cc(N(c3ccc(B(O)O)cc3)S(C)(=O)=O)c(C3CC3)cc12` [Example 3, 4-(N-(5-cyclopropyl-2-(4-fluorophenyl)-3-(methylcarbamoyl)benzofuran-6-yl)methylsulfonamido)phenylboronic acid] the EC50 [3] was 0.001 to 0.01 µM, the EC50 [4] was 0.001 to 0.01 µM and the EC50 [5] was 0.001 to 0.01 µM. For the same compound, the EC50 [6] was 0.2 to 1 µM.

Compound `CNC(=O)c1c(-c2ccc(F)cc2)oc2cc(N(c3cccc(CCB(O)O)c3)S(C)(=O)=O)c(C3CC3)cc12` [Example 26, (3-(N-(5-Cyclopropyl-2-(4-fluorophenyl)-3-(methylcarbamoyl)benzofuran-6-yl)methylsulfonamido)phenethyl)boronic acid] has an EC50 [3] of 0.011 to 0.2 µM, an EC50 [4] of 0.001 to 0.01 µM and an EC50 [5] of 0.001 to 0.01 µM. The EC50 [6] was 0.2 to 1 µM.

`CNC(=O)c1c(-c2ccc(F)cc2)oc2cc(N(c3ccc(C4COB(O)C4)c(Cl)c3)S(C)(=O)=O)c(C3CC3)cc12` (centres unmarked) [Example 25, 6-(N-(3-Chloro-4-(2-hydroxy-1,2-oxaborolan-4-yl)phenyl)methylsulfonamido)-5-cyclopropyl-2-(4-fluorophenyl)-N-methylbenzofuran-3-carboxamide] gave an EC50 [3] of 0.011 to 0.2 µM, an EC50 [4] of 0.001 to 0.01 µM and an EC50 [5] of 0.001 to 0.01 µM. The EC50 [6] was 0.011 to 0.2 µM.

`CNC(=O)c1c(-c2ccc(F)cc2)oc2cc(N(c3ccc(B(O)O)c(C(F)(F)F)c3)S(C)(=O)=O)c(C3CC3)cc12` [Example 10, (4-(N-(5-cyclopropyl-2-(4-fluorophenyl)-3-(methylcarbamoyl)benzofuran-6-yl)methylsulfonamido)-2-(trifluoromethyl)phenyl)boronic acid] showed an EC50 [3] of 0.001 to 0.01 µM, an EC50 [4] of 0.001 to 0.01 µM and an EC50 [5] of 0.001 to 0.01 µM. The EC50 [6] was 0.011 to 0.2 µM.

Work on `CNC(=O)c1c(-c2ccc(F)cc2)oc2cc(N(c3cc(F)c4c(c3)COB4O)S(C)(=O)=O)c(C3CC3)cc12` [Example 24, 5-Cyclopropyl-6-(N-(7-fluoro-1-hydroxy-1,3-dihydrobenzo[c][1,2]oxaborol-5-yl)methylsulfonamido)-2-(4-fluorophenyl)-N-methylbenzofuran-3-carboxamide] yielded an EC50 [3] of 0.001 to 0.01 µM, an EC50 [4] of 0.001 to 0.01 µM and an EC50 [5] of 0.001 to 0.01 µM. It also gave an EC50 [6] of 0.011 to 0.2 µM.
